# In US20040143025A1, “Carbon monoxide generating compunds for treatment of vascular, inflammatory and immune disorders” (priority 2002, published 2004):
# What was measured:
# [1] = test system: aortic allografts; experiment: Immunohistology of aortic grafts: activation markers and cytokines; format: in vivo, rat; design: key: −: not present; +: low; ++: moderate; +++: frequent
# Method: (§1) Immunohistological analysis. Immunohistology was performed on cryostat sections as previously described in detail. Guillot et al., J. Immunol. 164:5258-68 (2000). Immunohistological analysis of infiltrating leukocytes was performed at day 30 after transplantation using the following mouse Mab: a mixture of two anti-leukocyte CD45 Mabs (OX1 AND OX30), anti-monocyte/macrophage CD68 (ED1), anti-αβ TCR (R.7.3), anti-CD4 (W3/25), anti-CD8 α chain (OX8), anti-monomorphic class II MHC antigens (OX6), anti-CD25 (OX39) (all from ECACC, Wiltshire, UK), anti-CD54 (ICAM-1) (Seikagaku America Inc., Rockville, Mass.), anti-CD86 (B7.2) (Pharmingen, Franklin Lakes, N.J.) and an irrelevant mouse Mab (3G8, anti-human CD16). VSMCs were detected using a mouse anti-α human smooth muscle actin Mab (Sigma, St. Louis, Mo.). Slides were then incubated with a biotin-conjugated anti-mouse immunoglobulin antibody (Vector Laboratories, Burlingame, Calif.), followed by HRP-conjugated streptavidin (Vector Laboratories) and VIP substrate. IFNγ expression was analyzed using a hamster Mab (Genzyme, Cambridge, Mass.). The IP10 chemiokine was detected using a goat anti-IP10 antibody (Santa Cruz, Santa Cruz, Calif.). Rabbit antibodies were used to detect iNOS (Transduction Laboratories, Lexington, Ky.), HO-1 (Stressgen) and TGFβ1 (Promega, Madison, Wis.). Biotin-conjugated anti-hamster, anti-goat and anti-rabbit antibodies were from Jackson Immunoresearch. Binding of these antibodies was detected by incubation with HRP-conjugated streptavidin and VIP substrate. Tissue sections were counterstained with hematoxylin and lithium carbonate.
# [2] = test system: aortic allografts; experiment: Immunohistology of aortic grafts: infiltrating leukocytes and VSMCs; format: in vivo, rat; design: key: −: not present; +: low; ++: moderate; +++: frequent; details: day 30
# Method: as §1
# [3] = test system: rat liver; experiment: Histologic severity of I/R injury, Banff criteria; design: species or system Sprague Dawley (SD) rats; details: CO, scale 1-4
# Source text: Histology. Liver specimens were fixed in a 10% buffered formalin solution and embedded in paraffin. Sections were made at 4 μm and stained with H&E. The histologic severity of I/R injury was graded using International Banff Criteria (Int'l Banff Schema Conference Worksheet, The Third Int'l Banff Conference on Allograft Pathology, June 21-25 (1995)). Using these criteria, lobular disarray and ballooning changes are graded from 1-4, where no change is given a score of 1 and severe disarray or ballooning changes are given a score of 4.
# [4] = test system: iNOS; experiment: Western blot of liver samples, iNOS; design: species or system rat; details: 2 h reperfusion
# Method: Western blots. Protein was extracted from liver samples with PBSTDS buffer (50 mM Tris, 150 mM NaCl, 0.1% SDS, 1% sodium deoxycholate, and 1% triton X-100, pH 7.2). Proteins (30 μg/sample) in SDS-loading buffer (50 mM Tris, pH 7.6, 10% glycerol, 1% SDS) were subjected to 12% SDS-polyacrylamide gel electrophoresis and transferred to nitrocellulose membrane (Bio-Rad, Hercules, Calif.). The gel was stained with coomassie blue to document equal protein loading. The membrane was blocked with 3% dry milk and 0.1% Tween 20 (USB, Cleveland, Ohio) in PBS and incubated with rabbit anti-rat HO-1 or iNOS polyclonal Abs (SangStat, Fremont, Calif.). Relative protein quantities were determined using a densitometer (Kodak Digital Science 1D Analysis Software, Rochester, N.Y.).
# [5] = test system: Louvain rats immunized with collagen type II; experiment: Rat collagen-arthritis model; format: in vivo; design: arthritic score / Arthritis Score / X-Ray Score: scale not given here
# Method: To assess the therapeutic potential of methylene chloride as a carbon-monoxide generating compound in this disease model, female Louvain rats weighing between 120 and 150 g were injected intradermally with 0.5 mg native chicken collagen type II solubilized in 0.1M acetic acid and emulsified in incomplete Freund's adjuvant. At the onset of disease (around day 10) animals were divided into three groups. One group was treated daily with vehicle, the second and third groups with 100 mg/kg/day and 500 mg/kg/day methylene chloride (p.o.). Severity of disease was evaluated daily using a quantification method based on standardized levels of swelling and periarticular erythema. Animals were sacrificed on day 28. […] Compared to control animals these differences were statistically significant (p<0.02).
# Iodoform and bromoform were compared with methylene chloride as alternative carbon monoxide generating compounds, using the rat collagen arthritis model described in Example 6 above. Briefly, arthritis was induced in a Lovain strain of rats by immunizing the animals with Collagen Type II in Incomplete Freund's Adjuvant. Digitized radiographs were obtained at the completion of the study on day 28. Pharmacokinetics were also determined and the synovial tissue from the inflamed joints of the treated animals was harvested on Day 16 or Day 28 post-immunization. Disease systems were generally evident by Day 10.
structure (smiles),measurement,setting,value
"[C-]#[O+] [CO, carbon monoxide]",CD54 (ICAM-1),[1]; adventitia,+++
same,CD86 (B7.2),[1]; adventitia,+
same,INOS,[1]; adventitia,+++
same,IP10,[1]; adventitia,+
same,MHC-II,[1]; adventitia,++
same,TGFβ,[1]; adventitia,++
same,CD54 (ICAM-1),[1]; intima,++
same,CD86 (B7.2),[1]; intima,+
same,INOS,[1]; intima,++
same,IP10,[1]; intima,+
same,MHC-II,[1]; intima,++
same,TGFβ,[1]; intima,+
same,CD54 (ICAM-1),[1]; media,−
same,CD86 (B7.2),[1]; media,−
same,INOS,[1]; media,++
same,IP10,[1]; media,+
same,MHC-II,[1]; media,−
same,TGFβ,[1]; media,+
same,CD4,[2]; adventitia,++
same,CD8,[2]; adventitia,+
same,CD45 (leukocytes),[2]; adventitia,+++
same,CD68 (macrophages),[2]; adventitia,+++
same,TCRαβ (T cells),[2]; adventitia,+
same,VSMCs,[2]; adventitia,−
same,CD4,[2]; intima,+
same,CD8,[2]; intima,+
same,CD45 (leukocytes),[2]; intima,++
same,CD68 (macrophages),[2]; intima,++
same,TCRαβ (T cells),[2]; intima,−
same,VSMCs,[2]; intima,−
same,CD4,[2]; media,−
same,CD8,[2]; media,−
same,CD45 (leukocytes),[2]; media,−
same,CD68 (macrophages),[2]; media,−
same,TCRαβ (T cells),[2]; media,−
same,VSMCs,[2]; media,+++
same,Banff score of I/R injury,[3]; 1 h reperfusion,1.2±0.31
same,Banff score of I/R injury,[3]; 2 h reperfusion,2.0±0.12
same,iNOS expression (Western blot),[4],no detectable bands
ClCCl [methylene chloride],X-ray score (bone erosion),[5]; methylene chloride 100 mg/kg/day,2.7+/−0.8
same,arthritic score (mean+/−standard error),"[5]; methylene chloride 100 mg/kg/day p.o., end of study (day 28)",3.8+/−1.0
same,X-ray score (bone erosion),[5]; methylene chloride 500 mg/kg/day,1.8+/−0.7
same,arthritic score,"[5]; methylene chloride 500 mg/kg/day p.o., end of study (day 28)",2.75
